Measured values: US12251374B2, “Fampridine TTS” (LTS Lohmann Therapie-Systeme AG, priority 2017, dated 2025)

Experiments:
[1] = Saturation concentration Cs of fampridine in polymer matrices ("sandwich" method by Liu); type: physicochemical; conditions: for Cs of fampridine: 7 days at room temperature
Description: The saturation concentration Cs of […] determined in various polymer matrices by the method described by Liu. (Liu, P., Gargiulo, P., Wong, J., and Novartis (1997). A Novel Method for Measuring Solubility of a Drug in an Adhesive, Pharmaceutical Research 14, page 317). In this method, known by specialists as the “sandwich” method, the saturation concentration is determined as follows: A laminate is constructed, having the following layer sequence: protective film-donor layer with active ingredient (dissolved and undissolved)-active ingredient-permeable membrane-acceptor layer without active ingredient-protective film. The two protective films are made of identical material; the matrix material of the donor and of the acceptor layer is likewise identical. The donor layer is produced by dissolving the active ingredient in a solution of the polymer in organic solvent. The concentration of the active ingredient must be selected to be high enough that an undissolved residue can be identified in the polymer matrix so that the saturation concentration Cs in the donor layer is reliably exceeded. This solution is applied to the protective film, and the process solvent is evaporated. The adhesive surface of the donor layer is then covered with the membrane. A dialysis tube made of regenerated cellulose (ZelluTrans®, from Roth, 46 mm flat width) that has been cut to size in the longitudinal direction is used as membrane. The acceptor layer is produced without active ingredient, similarly to the donor layer, and the membrane is applied to the other side. The laminates thus produced are then stored for 7 days at room temperature, during which time the active ingredient diffuses through the membrane into the acceptor layer. The active ingredient concentration in the […] is then determined. To this end, aliquots of approximately 1 cm^2 are punched out using a punching tool of standardised area. The membrane is then removed, the punched blanks without membrane are weighed, and their weight is recorded (m1). The punched blanks are then placed in organic solvent so as to remove the matrices. The backing layers are removed, washed, and dried, and their weight (m2) is determined. […] The concentration of […] solution is then calculated using an HPLC method, and its concentration in the […] is calculated. The saturation concentrations of […] different polymer matrices determined on the basis of this test approach are summarised in Table 1: […]

[2] = Solubility of fampridine base in organic solvents; type: physicochemical
Description: Since toluene polysiloxane solution is not commercially obtainable, BIO PSA 4201 from Dow Chemicals (polysiloxane in n-heptane) was used as starting material. The solvent was evaporated and the rubber-like polymer residue was dissolved with so much toluene that a solution with approximately 75% solids was obtained.

## Nc1ccncc1 [fampridine, 4-aminopyridine]
[1]; in acidic polymers vs neutral polymers
  saturation concentration Cs relative to neutral polymers: approximately 3 times higher
[1]; in acrylate copolymer of 2-ethylhexylacrylate, butyl acrylate, vinyl acetate, acrylic acid, ethyl acetate
  Cs of fampridine: 7.4%
[1]; in acrylate copolymer of 2-ethylhexylacrylate, vinyl acetate and 2-hydroxyethyl acrylate, ethyl acetate
  Cs of fampridine: 3.3%
[1]; in neutral polymers (summary of Table 1)
  saturation concentration Cs of fampridine: approximately 3%
[1]; in polyisobutylene, polymer dissolved in toluene
  Cs of fampridine: 2.2%
[1]; in polysiloxane
  Cs of fampridine (in words): especially low
[1]; in polysiloxane, ethyl acetate
  Cs of fampridine: 0.3%
[1]; in styrene-isoprene-styrene block copolymer, polymer dissolved in toluene
  Cs of fampridine: 2.7%
[2]; in aromatic hydrocarbons
  Solubility: sufficiently soluble
[2]; in n-heptane
  Solubility: not
